Results as given in the supplement of paper PMC10307832.

compound: CC1CC(=O)N(C2=CN=C(N=C2N1C3CCCC3)NC4=C(C=C(C=C4)C(=O)NC5CCN(CC5)C)OC)C [NPK76-II-72-1] + Nc1nc2[nH]cc(CCc3ccc(C(=O)N[C@@H](CCC(=O)O)C(=O)O)cc3)c2c(=O)[nH]1 [Pemetrexed] (partner 0.2 µM); test: relative viability (nuclei count vs DMSO), 5 days (fraction); higher = more cells survive; conditions: first compound 0.01 µM
Outline: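 Five library-drug doses in √10 steps were combined with a fixed anchor-drug dose, or a single drug was given alone, by pin tool to lung cancer cell lines in 1536-well plates the day after seeding. Nuclei were stained and counted after 5 days. Relative viability is the nuclei count in treated wells over that in vehicle wells, taken as the median of duplicate plates.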

Question: Which relative viability does the source give for NCI-H522 here?
Answer: 0.839

Question: With NCI-H1650 as the cell line, how does the relative viability read?
Answer: 0.325

Question: Which relative viability does the source give for NCI-H1993 here?
Answer: 0.515

Question: Which relative viability does the source give for SW 1573 here?
Answer: 0.751

Question: Which relative viability does the source give for NCI-H838 here?
Answer: 0.277

Question: Which relative viability does the source give for NCI-H520 here?
Answer: 0.575

Question: NCI-H2126 was tested. Which relative viability did it give?
Answer: 0.678

Question: For EMC-BAC-2, which relative viability is on record?
Answer: 0.451

Question: How did the relative viability turn out when NCI-H2085 was run?
Answer: 0.855

Question: With HCC-366 as the cell line, how does the relative viability read?
Answer: 0.127

Question: For NCI-H1666, which relative viability is on record?
Answer: 0.844

Question: How did the relative viability turn out when NCI-H596 was run?
Answer: 0.522

Question: Which relative viability does the source give for LK-2 here?
Answer: 0.228

Question: For NCI-H2087, which relative viability is on record?
Answer: 0.66

Question: How did the relative viability turn out when NCI-H2342 was run?
Answer: 0.74

Question: Which relative viability does the source give for SK-MES-1 here?
Answer: 0.929

Question: How did the relative viability turn out when H3255 was run?
Answer: 0.565

Question: COR-L23 was tested. Which relative viability did it give?
Answer: 0.207

Question: Which relative viability does the source give for COR-L 105 here?
Answer: 1.06

Question: How did the relative viability turn out when LOU-NH91 was run?
Answer: 0.348

Question: Which relative viability does the source give for ChaGo-K-1 here?
Answer: 0.243

Question: How did the relative viability turn out when NCI-H2170 was run?
Answer: 0.407

Question: Which relative viability does the source give for HCC-44 here?
Answer: 0.65

Question: How did the relative viability turn out when SW 900 was run?
Answer: 0.445

Question: NCI-H1648 was tested. Which relative viability did it give?
Answer: 0.633

Question: How did the relative viability turn out when NCI-H1395 was run?
Answer: 1.02

Question: Which relative viability does the source give for NCI-H1563 here?
Answer: 0.581

Question: NCI-H1944 was tested. Which relative viability did it give?
Answer: 0.564

Question: How did the relative viability turn out when NCI-H358 was run?
Answer: 0.179

same assay, conditions: first compound 0.03162 µM

Question: NCI-H522 was tested. Which relative viability did it give?
Answer: 0.914

Question: Which relative viability does the source give for NCI-H1650 here?
Answer: 0.368

Question: For NCI-H1993, which relative viability is on record?
Answer: 0.566

Question: How did the relative viability turn out when SW 1573 was run?
Answer: 0.829

Question: Which relative viability does the source give for NCI-H838 here?
Answer: 0.251

Question: For LCLC-103H, which relative viability is on record?
Answer: 0.441

Question: NCI-H520 was tested. Which relative viability did it give?
Answer: 0.741

Question: With NCI-H2126 as the cell line, how does the relative viability read?
Answer: 0.809

Question: How did the relative viability turn out when EMC-BAC-2 was run?
Answer: 0.497

Question: Which relative viability does the source give for NCI-H2085 here?
Answer: 0.946

Question: Which relative viability does the source give for HCC-366 here?
Answer: 0.149

Question: For NCI-H1666, which relative viability is on record?
Answer: 0.802

Question: Which relative viability does the source give for NCI-H596 here?
Answer: 0.503

Question: For LK-2, which relative viability is on record?
Answer: 0.292

Question: NCI-H2087 was tested. Which relative viability did it give?
Answer: 0.653

Question: For NCI-H2342, which relative viability is on record?
Answer: 0.755

Question: For SK-MES-1, which relative viability is on record?
Answer: 0.968

Question: With H3255 as the cell line, how does the relative viability read?
Answer: 0.517

Question: For COR-L23, which relative viability is on record?
Answer: 0.19

Question: For COR-L 105, which relative viability is on record?
Answer: 1.07

Question: With LOU-NH91 as the cell line, how does the relative viability read?
Answer: 0.402

Question: For ChaGo-K-1, which relative viability is on record?
Answer: 0.259

Question: NCI-H2170 was tested. Which relative viability did it give?
Answer: 0.26

Question: HCC-44 was tested. Which relative viability did it give?
Answer: 0.689

Question: Which relative viability does the source give for SW 900 here?
Answer: 0.49

Question: With NCI-H1648 as the cell line, how does the relative viability read?
Answer: 0.648

Question: For NCI-H1395, which relative viability is on record?
Answer: 0.842

Question: Which relative viability does the source give for NCI-H1792 here?
Answer: 0.961

Question: For NCI-H1793, which relative viability is on record?
Answer: 1.05

Question: Which relative viability does the source give for NCI-H1563 here?
Answer: 0.767

Question: For NCI-H1944, which relative viability is on record?
Answer: 0.665

Question: With NCI-H358 as the cell line, how does the relative viability read?
Answer: 0.186

same assay, conditions: first compound 0.1 µM

Question: NCI-H522 was tested. Which relative viability did it give?
Answer: 1.01

Question: For NCI-H1650, which relative viability is on record?
Answer: 0.345

Question: NCI-H1993 was tested. Which relative viability did it give?
Answer: 0.474

Question: How did the relative viability turn out when SW 1573 was run?
Answer: 0.821

Question: For NCI-H838, which relative viability is on record?
Answer: 0.263

Question: LCLC-103H was tested. Which relative viability did it give?
Answer: 0.425

Question: Which relative viability does the source give for NCI-H520 here?
Answer: 0.427

Question: With NCI-H2126 as the cell line, how does the relative viability read?
Answer: 0.617

Question: With EMC-BAC-2 as the cell line, how does the relative viability read?
Answer: 0.446

Question: How did the relative viability turn out when NCI-H2085 was run?
Answer: 0.972

Question: HCC-366 was tested. Which relative viability did it give?
Answer: 0.132

Question: NCI-H1666 was tested. Which relative viability did it give?
Answer: 0.88

Question: NCI-H596 was tested. Which relative viability did it give?
Answer: 0.485

Question: For LK-2, which relative viability is on record?
Answer: 0.334

Question: NCI-H2087 was tested. Which relative viability did it give?
Answer: 0.588

Question: With NCI-H2342 as the cell line, how does the relative viability read?
Answer: 0.812
